Source: paper PMC5641347, “Aii810, a Novel Cold-Adapted N-Acylhomoserine Lactonase Discovered in a Metagenome, Can Strongly Attenuate Pseudomonas aeruginosa Virulence Factors and Biofilm Formation” (Frontiers in Microbiology, 2017)

System: T1, Aii810
T1 construct: E. coli BL21(DE3), Ni-NTA
Experiment: p-nitrophenol release at […] nm, Michaelis-Menten fit
Type: biochemical, uncultured bacterium
Conditions: 20°C, pH 6.5

Compound `CC(=O)Oc1ccc([N+](=O)[O-])cc1` [C2, ρ-nitrophenyl acetate] has a Km of 205 µM.
